According to article PMC6066796 (Antiviral Research, 2018):
pEC50: −log10 of the molar value. Like-named read-outs stand apart in the source and are kept apart here.

How the values were obtained:
[1] = test system: recombinant EBOV (Mayinga variant); assay type: cell-based, Ebola virus; conditions: read-out: Approximate EC50 against recombinant reporter EBOV variants
[2] = test system: RAVV (Ravn variant); assay type: cell-based, Ravn virus
[3] = test system: NiV (Malaysian genotype); conditions: cited from earlier work
[4] = test system: HeV; conditions: cited from earlier work

## 2′-monofluoro-4′-azidocytidine [2′F-4′N3-C]
[1]
  pEC50: 5.10 to 5.52
[2]
  Reduction of infectious RAVV titers: roughly 1.5 orders of magnitude

## [N-]=[N+]=N[C@]1(CO)O[C@@H](n2ccc(N)nc2=O)[C@H](O)[C@@H]1O [R1479, 4′-azidocytidine]
[3]
  pEC50: 5.82
[1]
  pEC50: ~5.70
[4]
  pEC50: 5.62
[2]; at 50 μM
  Reduction of infectious RAVV titers: over 4 orders of magnitude
